Experimental findings from a melting point compilation (Tetko et al.; mined from patent text by program, amines drawn as free bases though some values may be those of a salt) are described below.

Take `Cc1cc(-c2c(F)cc3c(=O)c(C(=O)O)cn4c3c2SC[C@@H]4C)cc(C)n1`: the melting point lay in the range of 328 to 331 °C.
Compound `COC(=O)C(C)Oc1cc(C)ccc1COc1ccc(-n2c(=O)cc(C(F)(F)F)n(C)c2=O)cc1` (configuration not stated) registered a melting point of 52 to 54 °C.
Turning to `C=CCNCCC(OC)(c1ccccc1)c1ccccc1`, the melting point lay in the range of 40 to 50 °C.
The same measure for `CC(Cc1ccccc1)CN(C)C1CCC(c2ccc3[nH]c(=O)oc3c2)CC1` (configuration not stated): 43 to 48 °C.
As to `O=S(=O)(c1cccs1)N(CC1CC1)c1cccc2cc(-c3ncc(CO)s3)[nH]c12`, the melting point turned out to be 174 °C.
As for `CCC1(Cl)C(=O)c2c(cc(OCC(=O)O)c(Cl)c2Cl)C1C` (configuration not stated), the melting point was 208 to 210 °C.
`CC(c1ccncn1)C(O)(Cn1cncn1)c1ccc(F)cc1F` (configuration not stated): the melting point was 114 to 116 °C.
For `COc1ccc(N(C)c2nccc(-c3cccnc3)n2)cc1` the value was 88 to 90 °C.
`CNc1cc(Cl)cc(NCCOC)c1[N+](=O)[O-]` displayed a melting point of 93 °C.
In turn, `CCCCn1ncc2cc(/C=C/c3ccc(O)cc3)ccc2c1=O` returned a melting point of 225 to 230 °C.
Compound `COC(=O)c1ccccc1-c1cnc(-c2cccc(C(F)(F)F)c2)o1` came in with a melting point of 84.5 to 86 °C.
`O=C(O)Cc1ccc2c(c1)[nH]c1ccccc12` gave a melting point of 150 to 152 °C.
On to `Cc1cc(C)c(Nc2nc(N(C)C)ncc2S(=O)(=O)c2cccc(OCc3ccccc3)c2)c(C)c1`, for which the melting point was 52 to 58 °C.
As to `CCCCCCCCCCCCCCCCOC(=O)c1cccc([N+](=O)[O-])c1`, the melting point fell in the range of 51 to 53 °C.
Compound `Cc1nc2c(C#N)cnn2c2c1CCN2C(C)(C)C` displayed a melting point of 220 to 224 °C.
`CCCc1c(OCc2cccc(C(=O)NC(C)CCCc3cccnc3)c2)ccc(C(C)=O)c1O` (configuration not stated) yielded a melting point of 115 to 118 °C.
For `C[Si](C)(C)C#Cc1cccc2ccccc12` the value was 41 to 43 °C; for `COc1ccc([C@@H]2Sc3ccccc3N(CCN(C)C)C(=O)[C@@H]2OC(=O)c2ccc([N+](=O)[O-])cc2)cc1`, 113 to 114 °C; for `COc1ccc(C(=O)C(=O)c2ccncc2)cc1OC1CCCC1`, 117 to 119 °C.
`CCCCCc1ccc(-c2nc(C)c(C(C)=NNC(=N)N)s2)cc1` came in with a melting point of 210 °C.
The compound `Cc1nc2ccc3c(c2s1)C(=O)CC3` had a melting point of 163 to 165 °C.
Turning to `CC1(C)Nc2cc(F)ccc2NC1=O`, the melting point was 148 to 149 °C.
`O=CNc1cc(-c2ccc(Cl)cc2)n[nH]1` gave a melting point of 151 °C.
For `Cc1noc(NS(=O)(=O)c2cccc(F)c2)c1Br` the value was 125 to 128 °C.
`Nc1[nH]c(=O)c(C(=O)CCC2CCN(CC3CCCCC3)CC2)cc1Cl` returned a melting point of 164 °C.
Take `CC1(C)C(C(=O)OCC(Cl)(Cl)Cl)N2C(=O)C(NC(=O)Cc3ccccc3)C2S1=O` (configuration not stated): the melting point was 166 to 168 °C.
For `N#Cc1ncn2c1[C@@H]1CCN1C(=O)c1cc(Cl)ccc1-2` the value was 258 to 261 °C.
`CN(C)CC1CCCCN1CC(=O)N1c2ccccc2NC(=O)c2c1ccn2C` (configuration not stated) came in with a melting point of 163 to 165 °C.
`CCOC(=O)C(C)Oc1ccc(-c2ccc(CCNC(=O)c3cc(Cl)ccc3OC)cc2)cc1` (configuration not stated) registered a melting point of less than 20 °C.
The same measure for `Cn1c(NCc2cccc(NC(=O)C=Cc3ccccc3Cl)c2)nc2ccccc21`: 188 to 191 °C; for `Cc1c(O)ccnc1CSc1nc2ccc(F)cc2[nH]1`: 232 to 233 °C; for `CCCC(=O)Nc1ncc(C(C)C)s1`: 95 to 97 °C.
The same measure for `O=[N+]([O-])c1cc(Br)c(NS(=O)(=O)c2ccccc2)cc1Br`: 148 °C.
Compound `N#Cc1c(Cl)csc1NC=O` had a melting point of 241 °C.
Compound `CCS(=O)(=O)n1cc(C(=O)C2CSC(c3cccnc3)N2)c2ccc(OCc3ccccc3)cc21` (configuration not stated) had a melting point of 76 to 82 °C.
`COc1cc(Nc2c(C#N)cnc3cc(-c4csc(CN5CCN(C)CC5)c4)ccc23)c(Cl)cc1Cl` came in with a melting point of 206 to 209 °C.
Regarding `N#CC1(C2(O)CCCCC2)Cc2cc3occc3cc21` (configuration not stated), the melting point is 154 to 158 °C.
Compound `CC(=O)N1CC(=O)N(C)C(=O)N1c1cc(Cl)c(C(C#N)c2ccc(Cl)cc2)c(Cl)c1` (configuration not stated) displayed a melting point of 178 °C.
Regarding `N#Cc1c(N2CCCCC2)cc(-c2ccc3ccc4cccc5ccc2c3c45)c2c1Cc1ccccc1-2`, the melting point was 168 to 169 °C.
`COC(=O)C1c2ccccc2Oc2ccccc21` returned a melting point of 82 °C.
`CCOC(=O)c1cn(Cc2ccccc2)nc1NC(=O)NC1CCCCC1`: the melting point fell in the range of 94 to 95 °C.
In turn, `COc1ccc(C(=O)Nc2ccc(F)cc2)cc1N([N+](=O)[O-])S(=O)(=O)c1ccccc1` came in with a melting point of 221 to 240 °C.
`O=c1[nH]c2cc(Cl)ccc2c(O)c1-c1ccccc1Cl` gave a melting point greater than 300 °C.
Take `CCC(c1oc2ccccc2c(=O)c1-c1ccccc1F)n1cnc2c(N)ncnc21` (configuration not stated): the melting point lay within 160 to 163 °C.
Compound `CC12CCC(C(=Cc3ccc(C(=O)O)cc3)C1=O)C2(C)C` (configuration not stated) came in with a melting point of 240 °C.
Consider `CC1=NC(NC(=O)Nc2cccc(C)c2)C(=O)N(CC(=O)N2CCCCCC2)c2c(C)cccc21` (configuration not stated), for which the melting point was found to be 204 °C.
Compound `Cc1ncc(CSC(=O)c2cccc(C(=O)SCc3cnc(C)c(O)c3CO)c2)c(CO)c1O` came in with a melting point of 185 to 187 °C.
As to `CC(C(=O)c1c(O)c2cccnc2n(-c2cccc(C(F)(F)F)c2)c1=O)c1ccccc1` (configuration not stated), the melting point lay in the range of 200 to 201 °C.
In the case of `Cc1cnc(C)c(Oc2ccc(OCn3cnc(Cl)c3Cl)cc2)n1`, the melting point lay within 84 to 85 °C.
As to `Brc1cccc2c1Cc1ccccc1-2`, the melting point is 102 to 103 °C.
For `CS(=O)(=O)c1ccccc1-c1ccc(C(=O)N2Cc3ccc(C(=O)NCc4cccnc4)n3Cc3ccccc32)cc1` the value was 153 to 156 °C; for `CCCCCCCCCCCCCCOC(=O)c1cc(C(=O)OCCCCCCCCCCCCCC)cc([N+](=O)[O-])c1`, 60 to 61 °C.
For the compound `O=C(NCCCc1ccncc1)N(CCC12CC3CC(CC(C3)C1)C2)Cc1ccco1`, the melting point was 128 to 130 °C.
On to `O=C1OCC2=C1C(c1ccccc1[N+](=O)[O-])C1=C(COC1=O)N2`, for which the melting point was in the range of 273 to 274 °C.
Compound `Cc1ccc(NC(=O)c2ccc(CN3CCOCC3)c(C(F)(F)F)c2)cc1-c1ccc2cnncc2c1` gave a melting point of 160 to 162 °C.
The compound `N#Cc1ccc(N(Cc2ccccc2)n2cnnc2)cc1-c1ccc(O)cc1` showed a melting point of 229 to 230 °C.
For `COc1ccc(C2(c3ccc(OC)cc3)CC2(C)Br)cc1` (configuration not stated) the value was 97 to 104 °C; for `O=S1(=O)NCN(C2CC2)c2c(C(F)(F)F)cccc21`, 165 to 167 °C.
For `CCOC(=O)c1c2n(c3c(Cl)c(N4CCC(N(C)C)C4)c(F)cc3c1=O)C(C)S2` (configuration not stated), the melting point lay in the range of 131 to 133 °C.
For `Nc1cccc(C(=O)NS(=O)(=O)c2ccccc2)c1` the value was 138 °C; for `CC(C)(C)OC(=O)NCc1ccc(N2CC(C(=O)O)OC2=O)cc1` (configuration not stated), 166 °C; for `CCn1nc2c(N)nc3ncccc3c2c1CC(C)(C)O`, 283 to 286 °C.
